Data reported in patent US7163946B2 (Ligand Pharmaceuticals Incorporated, priority 2002, dated 2007).
pEC50, pIC50, pKi: −log10 of the molar value. Like-named read-outs stand apart in the source and are kept apart here.

Tests used:
hPR [1] = target: T1, hPR (Homo sapiens, UniProt P06401); experiment: hPR cotransfection assay in CV-1 cells, agonist mode; type: cell-based; details: for Emax: CV-1, CV-1 cells, relative to maximal response of progesterone as 100%, read-out: hPR Agonist CV-1 Cells Eff. (%); for pEC50: CV-1 cells, read-out: hPR Agonist CV-1 Cells EC50; for EC50: Tables 3 and 4, values without footnote, read-out: hPR agonist potencies (EC50 in nM) in the cotransfection assay
T1 sequence (P06401 1-933): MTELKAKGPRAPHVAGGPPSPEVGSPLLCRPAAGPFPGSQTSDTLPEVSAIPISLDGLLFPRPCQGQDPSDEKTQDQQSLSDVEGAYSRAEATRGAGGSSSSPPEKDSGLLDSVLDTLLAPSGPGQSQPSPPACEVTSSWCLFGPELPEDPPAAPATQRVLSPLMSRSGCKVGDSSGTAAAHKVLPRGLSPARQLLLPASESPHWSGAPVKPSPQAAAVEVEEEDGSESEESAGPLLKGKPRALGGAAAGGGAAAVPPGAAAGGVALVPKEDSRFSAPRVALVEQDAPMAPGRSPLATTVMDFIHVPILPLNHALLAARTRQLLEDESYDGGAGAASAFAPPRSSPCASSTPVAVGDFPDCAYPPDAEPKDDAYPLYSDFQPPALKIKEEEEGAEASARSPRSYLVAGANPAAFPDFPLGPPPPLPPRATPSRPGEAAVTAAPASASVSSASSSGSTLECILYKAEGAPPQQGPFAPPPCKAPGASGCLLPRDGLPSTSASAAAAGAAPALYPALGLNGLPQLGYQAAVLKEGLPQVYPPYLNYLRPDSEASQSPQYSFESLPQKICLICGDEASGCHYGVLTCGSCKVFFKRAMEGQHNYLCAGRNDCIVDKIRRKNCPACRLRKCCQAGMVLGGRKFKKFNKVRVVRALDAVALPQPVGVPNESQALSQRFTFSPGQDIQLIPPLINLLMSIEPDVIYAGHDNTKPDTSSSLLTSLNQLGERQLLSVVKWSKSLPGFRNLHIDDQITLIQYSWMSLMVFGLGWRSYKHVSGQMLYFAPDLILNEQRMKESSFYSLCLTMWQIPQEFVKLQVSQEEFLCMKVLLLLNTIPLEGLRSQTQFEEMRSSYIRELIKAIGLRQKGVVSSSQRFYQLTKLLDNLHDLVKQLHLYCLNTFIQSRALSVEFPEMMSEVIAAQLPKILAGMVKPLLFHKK

hPR [2] = target: T2, hPR (Homo sapiens, UniProt P06401); experiment: T47D alkaline phosphatase assay, antagonist mode; type: cell-based; details: T47D human breast cancer cells; for Emax: read-out: hPR Antagonists T47D Cells Eff. (%); for pIC50: read-out: hPR Antagonists T47D Cells IC50
T2 sequence (P06401 679-933 limits assumed): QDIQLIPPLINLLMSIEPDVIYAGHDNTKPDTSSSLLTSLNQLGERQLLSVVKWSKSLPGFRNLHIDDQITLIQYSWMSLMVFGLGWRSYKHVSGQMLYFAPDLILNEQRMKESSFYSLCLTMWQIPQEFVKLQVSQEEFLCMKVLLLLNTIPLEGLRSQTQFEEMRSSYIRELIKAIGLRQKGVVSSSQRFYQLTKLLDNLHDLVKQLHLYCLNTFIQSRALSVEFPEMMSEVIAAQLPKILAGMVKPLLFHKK

hPR-A = target: T3, hPR-A (Homo sapiens, UniProt P06401); experiment: Receptor competitive binding assay; details: read-out: PR binding Ki
T3 sequence (P06401 1-769 isoform P06401-2): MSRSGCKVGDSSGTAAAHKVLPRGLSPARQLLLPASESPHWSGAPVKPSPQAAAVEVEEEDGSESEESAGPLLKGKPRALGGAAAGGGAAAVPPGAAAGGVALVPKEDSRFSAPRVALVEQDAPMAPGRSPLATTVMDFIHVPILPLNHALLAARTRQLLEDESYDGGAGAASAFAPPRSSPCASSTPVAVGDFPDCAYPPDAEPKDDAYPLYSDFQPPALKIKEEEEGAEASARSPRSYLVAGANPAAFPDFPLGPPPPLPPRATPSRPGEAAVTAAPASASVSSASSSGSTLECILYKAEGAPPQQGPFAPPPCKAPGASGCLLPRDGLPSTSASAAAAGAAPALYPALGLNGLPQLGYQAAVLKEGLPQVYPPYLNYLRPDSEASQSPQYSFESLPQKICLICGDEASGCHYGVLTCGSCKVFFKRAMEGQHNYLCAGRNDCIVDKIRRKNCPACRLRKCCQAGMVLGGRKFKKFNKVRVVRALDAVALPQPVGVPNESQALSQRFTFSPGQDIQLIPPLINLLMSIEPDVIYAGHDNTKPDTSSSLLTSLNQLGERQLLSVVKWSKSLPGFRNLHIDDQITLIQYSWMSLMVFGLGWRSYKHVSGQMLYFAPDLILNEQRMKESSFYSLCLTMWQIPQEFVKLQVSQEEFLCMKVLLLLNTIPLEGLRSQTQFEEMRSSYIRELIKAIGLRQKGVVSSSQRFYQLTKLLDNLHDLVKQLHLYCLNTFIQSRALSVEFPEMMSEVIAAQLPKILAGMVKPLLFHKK

[3] = target: T4, human androgen receptor (hAR) (Homo sapiens, UniProt P10275); experiment: hAR cotransfection assay (potency ratio to hPR); type: cell-based; details: receptor-selectivity potency ratio, cotransfection assays
T4 sequence (P10275 1-920): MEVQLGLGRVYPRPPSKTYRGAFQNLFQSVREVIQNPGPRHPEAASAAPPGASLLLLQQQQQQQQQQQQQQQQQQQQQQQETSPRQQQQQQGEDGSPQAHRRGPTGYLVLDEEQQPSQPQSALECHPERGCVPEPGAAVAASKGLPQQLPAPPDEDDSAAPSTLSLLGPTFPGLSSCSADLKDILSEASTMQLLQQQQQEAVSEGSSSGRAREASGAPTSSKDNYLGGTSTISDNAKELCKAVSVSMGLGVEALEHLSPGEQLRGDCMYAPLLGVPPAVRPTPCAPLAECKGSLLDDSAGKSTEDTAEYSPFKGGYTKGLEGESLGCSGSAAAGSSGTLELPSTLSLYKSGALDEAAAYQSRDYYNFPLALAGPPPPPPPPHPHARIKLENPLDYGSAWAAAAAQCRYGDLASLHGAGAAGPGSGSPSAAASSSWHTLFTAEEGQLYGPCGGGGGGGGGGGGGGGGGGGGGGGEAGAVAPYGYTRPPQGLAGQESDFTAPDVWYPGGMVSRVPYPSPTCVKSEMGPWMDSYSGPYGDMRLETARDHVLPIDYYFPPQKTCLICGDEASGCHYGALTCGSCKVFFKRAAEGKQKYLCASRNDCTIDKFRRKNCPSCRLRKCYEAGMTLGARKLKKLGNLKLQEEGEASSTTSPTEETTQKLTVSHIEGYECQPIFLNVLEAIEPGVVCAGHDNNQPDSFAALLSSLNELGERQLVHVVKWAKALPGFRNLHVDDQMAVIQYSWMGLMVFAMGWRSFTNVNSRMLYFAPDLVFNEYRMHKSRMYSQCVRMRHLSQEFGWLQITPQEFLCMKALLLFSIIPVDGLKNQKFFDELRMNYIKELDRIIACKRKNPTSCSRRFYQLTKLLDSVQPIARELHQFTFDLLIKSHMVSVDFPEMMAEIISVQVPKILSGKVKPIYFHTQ

Emax (hPR [1]) [%]	pEC50 (hPR [1])	Emax (hPR [2]) [%]	pIC50 (hPR [2])	pKi (hPR-A)	hAR EC50 or IC50/hPR EC50 [3]	EC50 (hPR [1]) [nM]	SMILES
154	8.64	49	6.31	8.19	136		CC1=CC(C)(C)Nc2ccc3c(c21)C(c1cc2ccccc2s1)Oc1c(F)cc(F)cc1-3 (racemic) [Compound 63, (±)-7,9-difluoro-5-(benzo[b]thien-2-yl)-1,2-dihydro-2,2,4-trimethyl-5H-chromeno[3,4-f]quinoline]
85	8.46	< 20	< 5.00	8.57	37	3.5	CC1=CC(C)(C)Nc2ccc3c(c21)C(c1ccccc1)Oc1c(F)cc(F)cc1-3 (racemic) [Compound 33, (±)-7,9-difluoro-5-phenyl-1,2-dihydro-2,2,4-trimethyl-5H-chromeno[3,4-f]quinoline]
89	9.15	40	7.28	8.46	100		CC#CC1Oc2c(F)cc(F)cc2-c2ccc3c(c21)C(C)=CC(C)(C)N3 (racemic) [Compound 74, (±)-7,9-difluoro-5-(1-propynyl)-1,2-dihydro-2,2,4-trimethyl-5H-chromeno[3,4-f]quinoline]
159	9.22	46	6.21	8.05	742	0.6	COc1ccc(F)cc1/C=C1\Oc2c(F)cc(F)cc2-c2ccc3c(c21)C(C)=CC(C)(C)N3 [Compound 26, 7,9-difluoro-5(Z)-(2-methoxy-5-fluorobenzylidene)-1,2-dihydro-2,2,4-trimethyl-5H-chromeno[3,4-f]quinoline]
191	8.64	40	6.77	8.15	6		CC1=CC(C)(C)Nc2ccc3c(c21)/C(=C/Br)Oc1c(F)cc(F)cc1-3 [Compound 29, 7,9-difluoro-5(Z)-bromomethylidene-1,2-dihydro-2,2,4-trimethyl-5H-chromeno[3,4-f]quinoline]
146	8.73	50	6.87	8.55	252	1.87	CC1=CC(C)(C)Nc2ccc3c(c21)C(c1cccc(Cl)c1)Oc1c(F)cc(F)cc1-3 (racemic) [Compound 41, (±)-7,9-difluoro-5-(3-chlorophenyl)-1,2-dihydro-2,2,4-trimethyl-5H-chromeno[3,4-f]quinoline]
103	8.13	44	6.94	8.22	54	7.4	CC1=CC(C)(C)Nc2ccc3c(c21)/C(=C/c1ccncc1)Oc1c(F)cc(F)cc1-3 [Compound 14, 7,9-difluoro-5(Z)-(4-picolylidene)-1,2-dihydro-2,2,4-trimethyl-5H-chromeno[3,4-f]quinoline]
147	8.55	59	6.77	8.54	8	2.8	CC1=CC(C)(C)Nc2ccc3c(c21)/C(=C/c1ccncc1C)Oc1c(F)cc(F)cc1-3 [Compound 20, 7,9-difluoro-5(Z)-(3-methyl-4-picolylidene)-1,2-dihydro-2,2,4-trimethyl-5H-chromeno[3,4-f]quinoline]
169	8.54	42	6.41	8.02	622	2.9	CC1=CC(C)(C)Nc2ccc3c(c21)/C(=C/c1cc(F)ccc1F)Oc1c(F)cc(F)cc1-3 [Compound 17, 7,9-difluoro-5(Z)-(2,5-difluorobenzylidene)-1,2-dihydro-2,2,4-trimethyl-5H-chromeno[3,4-f]quinoline]
153	8.31	49	7.01	8.17	320	4.9	CC1=CC(C)(C)Nc2ccc3c(c21)/C(=C/c1ccccc1)Oc1c(F)cc(F)cc1-3 [Compound 10, 7,9-difluoro-5(Z)-benzylidene-1,2-dihydro-2,2,4-trimethyl-5H-chromeno[3,4-f]quinoline]
186	8.28	44	6.08	8.35	377		CC1=CC(C)(C)Nc2ccc3c(c21)/C(=C/c1ccsc1)Oc1c(F)cc(F)cc1-3 [Compound 30, 7,9-difluoro-5(Z)-(3-thienylmethylidene)-1,2-dihydro-2,2,4-trimethyl-5H-chromeno[3,4-f]quinoline]
212	8.85	35	6.44	8.07	>1000	1.4	CC1=CC(C)(C)Nc2ccc3c(c21)/C(=C/c1cc(F)ccc1C)Oc1c(F)cc(F)cc1-3 [Compound 19, 7,9-difluoro-5(Z)-(2-methyl-5-fluorobenzylidene)-1,2-dihydro-2,2,4-trimethyl-5H-chromeno[3,4-f]quinoline]
